The subject of test [1] is NFTs and SPs (neurofibrillary tangles, β-amyloid senile plaques). Kind of test: [F-18]FDDNP PET, Logan plot relative distribution volume. The test is classed as in vivo, human. The conditions noted are these: cerebellum reference. The method, then:
All scans were performed with ECAT HR or ECAT HR+ scanners (Siemens-CTI, Knoxville, Tenn.). The subjects were in the supine position with the imaging plane parallel to the orbito-meatal line and with their eyes open and ears unoccluded. A 20 min transmission scan was performed to correct PET data for radiation attenuation. 320-550 MBq of a PET tracer was injected as a bolus injection via the in-dwelling venous catheter, and the consecutive dynamic head PET scans were performed for 1 hour with [F-18]FDG or for 2 hours with [F-18]MPPF or with [F-18]FDDNP.
All PET scans were decay corrected and reconstructed using filtered-back projection (Hann filter, 5 mm FWHM) with scatter and attenuation correction. The resulting images contained either 47 contiguous slices with 3.4 mm plane-to-pane separation (EXACT HR) or 63 contiguous slices with the plane-to-plane separation of 2.42 mm (EXACT HR+).
Quantitation of [F-18]FDDNP data was performed using the Logan plot graphical analysis with the cerebellum as the reference region. Distribution volume ratio (DVR) parametric images were created as described elsewhere. ROIs were drawn bilaterally on the early frames of the dynamic PET scan (3 min to 6 min post-injection) using MRI as a guide bilaterally on the transaxial images on frontal lobe, on parietal lobe, on medial temporal lobe, and on lateral temporal lobe. In addition, a single ROI was placed on posterior cingulated gyrus. DV values for cortical regions were extracted from the [F-18]FDDNP DV parametric image using the above-described ROI set. DV values were determined for all 9 cortical ROIs and for cerebellum. Relative global neocortical [F-18]FDDNP distribution volume (global DVR) was determined by dividing the DV average value of the eight neocortical ROIs with the DV average value of cerebellar ROIs. In similar fashion, regional relative distribution volumes (DVRs) were determined for frontal, parietal, lateral temporal and medial temporal areas by dividing the DV average of both ROIs from the corresponding region with the DV average value of cerebellar ROIs. The posterior cingulated gyrus DVR was determined by dividing the cingulated gyrus DV value with the DV average value of cerebellar ROIs.

Test [2] relates to Tau aggregates and amyloid plaques. Kind of test: In vitro [F-18]FDDNP digital autoradiography on brain tissue slices. It is filed as binding, human. How it is done: Two AD and three control brain samples were obtained at the time of autopsy from the Alzheimer's Disease Research Center at USC Keck School of Medicine, Los Angeles. Glass mounted whole-hemisphere brain cryosections (100 μm thick), cut at the level of hippocampus, were incubated with 1.85 MBq/mL of […] in 50 mM Tris buffer/saline (pH=7.4) for 2 hours at room temperature. The samples were exposed to β^+-sensitive phosphor storage plates for 60 min, scanned in with BAS 5000 Phosphorimager, and analyzed with MacBAS software provided with the instrument (Fuji Film Medical Systems USA, Stamford, Conn.). […] All values were normalized to the inner layer, known to be well preserved in AD (16). [F-18]FDDNP autoradiography was performed as described elsewhere (17). In brief, the de-fattened tissue slices were incubated with 0.37 MBq/mL of [F-18]FDDNP in 1% ethanol in normal saline for 25 min at room temperature followed by differentiation in 60% 2-methyl-2-butanol (3 min). The sections were exposed to β^+-sensitive phosphor storage plates for 60 min and scanned in with BAS 5000 Phosphorimager.

SMILES strings stand for the structures. Entries after “also recorded” stand apart in the source; their conditions may differ.

`CC(=C(C#N)C#N)c1ccc2cc(N(C)CC[18F])ccc2c1` [[F-18]FDDNP, 2-(1-{6-[(2-[F-18]fluoroethyl)(methyl)amino]-2-naphthyl}ethylidene)malononitrile]: in test [1] (AD group), the “FDDNP mean DVR ± 1 SD, Frontal Lobe” value was 1.11 ± 0.03; the “FDDNP mean DVR ± 1 SD, Global” value was 1.17±0.01; the “FDDNP mean DVR ± 1 SD, Lateral Temporal Lobe” value is listed as 1.17 ± 0.03; the “FDDNP mean DVR ± 1 SD, Medial Temporal Lobe” value amounted to 1.23 ± 0.04. For the same molecule, in test [1] (AD group), the “FDDNP mean DVR ± 1 SD, Parietal Lobe” value is given as 1.17 ± 0.03 and the “FDDNP mean DVR ± 1 SD, Posterior Cingulate Gyrus” value stood at 1.18 ± 0.06. Also, in test [1] (AD group, listed as FDDNP), the “FDDNP mean DVR ± 1 SD, Global” value was determined as 1.17 ± 0.01. Further, in test [1] (CTRL group), the “FDDNP mean DVR ± 1 SD, Frontal Lobe” value was 1.05 ± 0.01; the “FDDNP mean DVR ± 1 SD, Global” value is on record as 1.08±0.03; the “FDDNP mean DVR ± 1 SD, Lateral Temporal Lobe” value was 1.07 ± 0.03; the “FDDNP mean DVR ± 1 SD, Medial Temporal Lobe” value was 1.12 ± 0.05. In test [1] (CTRL group), the “FDDNP mean DVR ± 1 SD, Parietal Lobe” value is reported as 1.07 ± 0.03 and the “FDDNP mean DVR ± 1 SD, Posterior Cingulate Gyrus” value amounted to 1.07 ± 0.05. Moreover, in test [1] (CTRL group, listed as FDDNP), the “FDDNP mean DVR ± 1 SD, Global” value is listed as 1.08 ± 0.03. In test [1] (MCI group), the “FDDNP mean DVR ± 1 SD, Frontal Lobe” value came to 1.08 ± 0.01; the “FDDNP mean DVR ± 1 SD, Global” value is on record as 1.12 ± 0.01; the “FDDNP mean DVR ± 1 SD, Lateral Temporal Lobe” value is recorded as 1.13 ± 0.03; the “FDDNP mean DVR ± 1 SD, Medial Temporal Lobe” value is listed as 1.19 ± 0.02. Moreover, in test [1] (MCI group), the “FDDNP mean DVR ± 1 SD, Parietal Lobe” value was found to be 1.09 ± 0.03 and the “FDDNP mean DVR ± 1 SD, Posterior Cingulate Gyrus” value is reported as 1.12 ± 0.03. Also, the “[F-18]FDDNP binding to gray matter, autoradiography” value in test [2] (AD tissue) is “increased in the gray matter of temporal and limbic lobes; also recorded: strong [F-18]FDDNP binding to the gray matter in the temporal lobe and in cingulated gyrus”. Also, in test [2] (normal control brain samples), the “[F-18]FDDNP binding to gray matter, autoradiography” value was “uniformly low; also recorded: none of the gray matter areas from the normal control brain samples showed [F-18]FDDNP binding above background levels in white matter”.

(Values after patent US20070218002A1, “Method for Detecting Alzheimer's Disease and other Forms of Dementia, and Measuring Their Progression” (priority 2004, published 2007).)
